According to patent publication US20110243855A1, “METHOD AND IMAGING MEDIUM FOR USE IN THE METHOD” (priority 2007, published 2011):

Legend:
mouse myocardium = assay: In vivo 13C-MR spectroscopy in mice (heart), conversion of hyperpolarised 13C-acetate to 13C-acetyl-CoA and 13C-acetylcarnitine; set-up: species or system C57Bl/6 mouse
Method: 200 μl of an imaging medium which was prepared as described in Example 3a was injected into a C57Bl/6 mouse over a time period of 6 s. The TRIS-^13C1-acetate concentration in said imaging medium was 75 mM and the polarisation was 20% at the time of injection. A ^13C-surface coil (diameter 12 mm) was placed over the mouse myocardium. A rat ^1H-body coil was used for anatomical reference images and localised shimming. ^13C-MR spectroscopy was carried out with a 2.4 T Bruker spectrometer. A dynamic set of ^13C-MR spectra (in total 30) was acquired every 3 s with a 30 degree RF pulse. From this experiment a ^13C1-acetylcarnitine signal build-up over the time of the experiment was clearly seen (FIG. 1).
(§1) 200 μl of an imaging medium which was prepared as described in Example 3a was injected into a C57Bl/6 mouse over a time period of 6 s. The TRIS-^13C1-acetate concentration in said imaging medium was approx. 50 mM. In both experiments (n=2) a ^13C-surface coil (diameter 12 mm) was placed over the mouse myocardium and ^13C-MR spectroscopy was carried out in a 2.4 T Bruker spectrometer. A spectrum was acquired 10 s after the imaging medium had been injected with a 90 degree RF pulse. […] The ratio of ^13C1-acetylcarnitine to ^13C1-acetyl-CoA was roughly 3 times higher in the heart than in the liver, see Example 6.

mouse liver = assay: In vivo 13C-MR spectroscopy in mice (liver), conversion of hyperpolarised 13C-acetate to 13C-acetyl-CoA and 13C-acetylcarnitine; set-up: species or system C57Bl/6 mouse; settings: 200 μl of approx. 50 mM, spectrum 10 s after injection, 90 degree pulse, n=2 (FIG. 2, 3)
Method: as §1, with “liver” for “myocardium”, “lower” for “higher”, “5.” for “6.”

[1] = Solid state polarisation after DNP, followed by solid state 13C-NMR; type: physicochemical; settings: DNP at 1.2 K, 3.35 T, microwave 93.89 GHz, trityl radical and Gd-chelate
Source text: The level of polarisation may for instance be determined by solid state ^13C-NMR measurements in solid hyperpolarised ^13C-acetate, e.g. solid hyperpolarised ^13C-acetate obtained by dynamic nuclear polarisation (DNP) of ^13C-acetate. The solid state ^13C-NMR measurement preferably consists of a simple pulse-acquire NMR sequence using a low flip angle. The signal intensity of the hyperpolarised ^13C-acetate in the NMR spectrum is compared with signal intensity of ^13C-acetate in a NMR spectrum acquired before the polarisation process. The level of polarisation is then calculated from the ratio of the signal intensities of before and after polarisation.
The probe is inserted into the probe-retaining container, submerged in the liquid helium and irradiated with microwaves. The microwave frequency may be determined from the EPR line of the DNP agent, which depends on the magnetic field of the magnet as 28.0 GHz/T. The optimal microwave frequency may be determined by adjusting the frequency for maximal NMR signal. Preferably, the optimal microwave frequency is in the about 94 GHz for a magnet charged to 3.35 T, 110 GHz for a magnet charged to 4 T, 140 GHz for a magnet charged to 5 T and 200 GHz for a magnet charged to 7 T. The power may be chosen between 50 and 200 mW, dependent on the probe size. The level of polarisation may be monitored as earlier described by for instance acquiring solid state ^13C-NMR signals of the probe during microwave irradiation. Generally, a saturation curve is obtained in a graph showing NMR signal vs. time. […] A solid state ^13C-NMR measurement suitably consists of a simple pulse-acquire NMR sequence using a low flip angle. […] The polarisation is then calculated from the ratio of the signal intensities before and after DNP.
To a micro test tube was added sodium ^13C1-acetate (Aldrich, 24.9 mg, 0.30 mmol) and 16 μl water. […] Polarisation was followed by solid state ^13C-NMR and the solid state polarisation was determined to be more than 20%. […]

[2] = Liquid state polarisation of the dissolved imaging medium by liquid state 13C-NMR; type: physicochemical; settings: for liquid state polarisation: liquid state 13C-NMR at 400 MHz, after 75 min DNP, dissolved in phosphate buffer pH 7, 50 mM
Method: In a similar way, the level of polarisation for dissolved hyperpolarised ^13C-acetate may be determined by liquid state NMR measurements. Again the signal intensity of the dissolved hyperpolarised ^13C-acetate is compared with the signal intensity of the dissolved ^13C-acetate before polarisation. The level of polarisation is then calculated from the ratio of the signal intensities of ^13C-acetate before and after polarisation. Hyperpolarisation of NMR active ^13C-nuclei may be achieved by different methods which are for instance described in described in WO-A-98/30918, WO-A-99/24080 and WO-A-99/35508, and which all are incorporated herein by reference and hyperpolarisation methods known in the art are polarisation transfer from a noble gas, “brute force”, spin refrigeration, the parahydrogen method and dynamic nuclear polarisation (DNP).
(§2) After 75 minutes of dynamic nuclear polarisation, the obtained frozen polarised composition was dissolved in 6 ml phosphate buffer (20 mM, pH 7, 100 mg/l EDTA, 0.9% NaCl). The pH of the final solution containing the dissolved composition was 7.3±0.1. The sodium ^13C1-acetate concentration in said final solution was 50 mM.
Liquid state polarisation was determined by liquid state ^13C-NMR at 400 MHz to be 19%.
as §2, with “TRIS-^13C1-acetate-d3” for “sodium ^13C1-acetate”
Liquid state polarisation was determined by liquid state ^13C-NMR at 400 MHz to be 32%.

Compound	13C1-acetylcarnitine signal build-up over the time of the experiment (mouse myocardium; 200 μl of 75 mM injected over 6 s, 30 spectra every 3 s, 30 degree pulse, 2.4 T (FIG. 1))	identification of 13C1-acetyl-CoA and 13C1-acetylcarnitine (mouse myocardium; 200 μl of approx. 50 mM, spectrum 10 s after injection, 90 degree pulse, n=2 (FIG. 2, 3))	identification of 13C1-acetyl-CoA and 13C1-acetylcarnitine (mouse liver)	solid state polarisation [1]	polarisation at the time of injection ([2]; imaging medium 75 mM, at the time of injection into mouse) [%]	liquid state polarisation [2] [%]
C[13C](=O)O.NC(CO)(CO)CO [TRIS-^13C1-acetate]	clearly seen	could be identified	could be identified	more than 25%	20	
NC(CO)(CO)CO.[2H]C([2H])([2H])[13C](=O)O [TRIS-^13C1-acetate-d3]				more than 25%		32
C[13C](=O)[O-].[Na+] [sodium ^13C1-acetate]				more than 20%		19
